Measurements taken from US20230295162A1 (EÖTVÖS LORÁND TUDOMÁNYEGYETEM, priority 2020, published 2023).
Read-outs that look alike come from different tables or passages of the source.

Key:
[1] = tested on: Panc1 pancreatic cancer cell line; test: CellTiter-Glo IC50 (Example 19); assay type: cell-based; conditions: Homo sapiens, PANC-1, 72 h
Protocol: Some representative imipridones and ONC212 as reference were further tested on the following human malignant cell lines: PC3 and LNCap (prostate carcinoma); BxPC3, MiaPaCa2 and Panc1 (pancreatic cancer); A549, HCC827, H1993 and H520 (lung carcinoma); MDA-MB-453 and MDA-MB-231 (breast cancer) (see Table 2 and FIGS. 1-11).
(§1) Cell lines were maintained according to the instructions provided by ATCC (https://www.lgcstandards-atcc.org/) in a 5% CO2 humidified incubator maintained at 37° C. temperature. Effects of compounds on cell viability were measured via CellTiter-Glo® luminescent cell viability assay (Promega, Madison, WI, USA) Cells were plated at 1000 cells/well onto a flat-bottomed, white 96 well plate (BRANDplates, cat. no.: 781965). […] After the treatment, medium was removed and CellTiter-Glo® reagent was added. The luminescence signal was recorded using a microplate reader (BioTek Synergy 2 Multi-Mode Reader, BioTek, Winooski, VT, USA).
(§2) Cell viability data (% of untreated control cells) was evaluated with Microsoft Excel. Dose-response curves (using a non-linear regression model, log (inhibitor) vs response, variable slope) were generated and IC50 values were determined using Graph Pad Prism 5.02 software (GraphPad Software, San Diego, CA, USA).

EBC-1 cell line = test: Additional in vitro IC50 tests (Table 3); assay type: cell-based; conditions: Homo sapiens
Protocol: as §1, §2

SCC-25 cell line = test: Additional in vitro IC50 tests (Table 3); assay type: cell-based; conditions: Homo sapiens
Protocol: as §1, §2

Detroit 562 cell line = test: Additional in vitro IC50 tests (Table 3); assay type: cell-based; conditions: Homo sapiens
Protocol: as §1, §2

H2228 cell line = test: Additional in vitro IC50 tests (Table 3); assay type: cell-based; conditions: Homo sapiens, NCI-H2228
Protocol: as §1, §2

Fadu cell line = test: Additional in vitro IC50 tests (Table 3); assay type: cell-based; conditions: Homo sapiens
Protocol: as §1, §2

[2] = tested on: PANC-1 (human pancreatic carcinoma) cells; test: Impedance-based viability assay (xCELLigence SP), long treatment; assay type: cell-based; conditions: 72 h, read-out: cytotoxicity expressed in IC50, PANC-1
Text: (Gibco®/Invitrogen Corporation, New York, NY, USA).
Data obtained from each experiment represent mathematical averages.

[3] = tested on: PC-3 (prostate, adenocarcinoma) cells; test: Cell viability assay, CellTiter-Glo (Example 21); assay type: cell-based, human; conditions: 72 h treatment
Protocol: (§3) Effect of the selected compounds on cancer cell viability was measured via CellTiter-Glo® luminescent cell viability assay (Promega, Madison, WI, USA) according to the manufacturer's instructions. Cells were plated onto a flat-bottomed, white 96 well plate (BRANDplates®, cat. no.: 781965). Density of the seeded cells was optimized based on their size and growth rate, as the follows: Panc-1:750 cells/well; DU 145, PC-3, Capan-1, MIA PaCa-2, SCC-25, FaDu and EBC-1: 1000 cells/well; LNCaP, Detroit 562, MDA-MB-231 and MDA-MB-453 1500 cells/well. […] After the treatment, the luminescence signal was recorded using a microplate reader (BioTek Synergy 2 Multi-Mode Reader, BioTek, Winooski, VT, USA). Dose-response curves were generated by GraphPad Prism 8.4.2. software using a non-linear regression model (variable slope, four parameters), (see FIGS. 12-51).

[4] = tested on: MDA-MB-231 (breast, adenocarcinoma) cells; test: Cell viability assay, CellTiter-Glo (Example 21); assay type: cell-based, human; conditions: 72 h treatment
Protocol: as §3

[5] = tested on: MIA PaCa-2 (pancreas, carcinoma) cells; test: Cell viability assay, CellTiter-Glo (Example 21); assay type: cell-based, human; conditions: 72 h treatment
Protocol: as §3

[6] = tested on: FaDu (pharynx, squamous cell carcinoma) cells; test: Cell viability assay, CellTiter-Glo (Example 21); assay type: cell-based, human; conditions: 72 h treatment
Protocol: as §3

[7] = tested on: Detroit 562 (pharynx, carcinoma) cells; test: Cell viability assay, CellTiter-Glo (Example 21); assay type: cell-based, human; conditions: 72 h treatment
Protocol: as §3

[8] = tested on: SCC-25 (tongue, squamous cell carcinoma) cells; test: Cell viability assay, CellTiter-Glo (Example 21); assay type: cell-based, human; conditions: 72 h treatment
Protocol: as §3

[9] = tested on: MDA-MB-453 (breast, carcinoma) cells; test: Cell viability assay, CellTiter-Glo (Example 21); assay type: cell-based, human; conditions: 72 h treatment
Protocol: as §3

[10] = tested on: Panc-1 (pancreas, carcinoma) cells; test: Cell viability assay, CellTiter-Glo (Example 21); assay type: cell-based, human; conditions: 72 h treatment
Protocol: as §3

[11] = tested on: DU 145 (prostate, carcinoma) cells; test: Cell viability assay, CellTiter-Glo (Example 21); assay type: cell-based, human; conditions: 72 h
Protocol: as §3

[12] = tested on: LNCaP (prostate, carcinoma) cells; test: Cell viability assay, CellTiter-Glo (Example 21); assay type: cell-based, human; conditions: 72 h
Protocol: as §3

[13] = tested on: Capan-1 (pancreas, adenocarcinoma) cells; test: Cell viability assay, CellTiter-Glo (Example 21); assay type: cell-based, human; conditions: 72 h treatment
Protocol: as §3

[14] = tested on: EBC-1 (lung, squamous cell carcinoma) cells; test: Cell viability assay, CellTiter-Glo (Example 21); assay type: cell-based, human; conditions: 72 h treatment
Protocol: as §3

Panc-1 human cell line = test: Cytotoxicity on Panc-1, xCELLigence SP, IC50 after 24 h, 48 h, 72 h and 96 h (Example 22)
[15] = tested on: H2228 lung cancer cell line; test: High-throughput screening, CellTiter-Glo cell viability assay at 100 nM; assay type: cell-based, human; conditions: Homo sapiens, NCI-H2228, HTS, compounds at 100 nM, 72 h, read-out: cytotoxicity expressed in IC50, H2228 (results of High throughput screening)
[16] = tested on: EBC-1 lung cancer cell line; test: as above; assay type: cell-based, human; conditions: Homo sapiens, EBC-1, HTS, compounds at 100 nM, 72 h, read-out: cytotoxicity expressed in IC50, EBC-1 (results of High throughput screening)

## O=C1C2=C(CCN(Cc3cc(F)cc(F)c3)C2)N2CCN=C2N1C(CO)c1ccc(Cl)cc1 (racemic) [I/128]
[1]
  IC50: 10 nM
EBC-1 cell line
  IC50: 13 nM
SCC-25 cell line
  IC50: 19 nM
Detroit 562 cell line
  IC50: 5 nM
H2228 cell line
  IC50: 12 nM
Fadu cell line
  IC50: 12 nM
other
  melting point: 86 °C

## O=C1C2=C(CCN(Cc3cccc(F)c3)C2)N2CCN=C2N1Cc1ccc(F)cc1 [I/6, reference compound]
[2]
  IC50: < 100 nM
[3]; 3.7 nM
  PC-3 (prostate, adenocarcinoma) cell viability (% of control): 103.6 ± 14.4 % of control
[3]; 11.1 nM
  PC-3 (prostate, adenocarcinoma) cell viability (% of control): 108.7 ± 7.7 % of control
[3]; 100 nM
  PC-3 (prostate, adenocarcinoma) cell viability (% of control): 35.3 ± 0.5 % of control
[3]; 300 nM
  PC-3 (prostate, adenocarcinoma) cell viability (% of control): 34.1 ± 2.0 % of control
[4]; 3.7 nM
  MDA-MB-231 (breast, adenocarcinoma) cell viability (% of control): 100.5 ± 5.4 % of control
[4]; 11.1 nM
  MDA-MB-231 (breast, adenocarcinoma) cell viability (% of control): 99.4 ± 4.1 % of control
[4]; 100 nM
  MDA-MB-231 (breast, adenocarcinoma) cell viability (% of control): 57.7 ± 3.8 % of control
[4]; 300 nM
  MDA-MB-231 (breast, adenocarcinoma) cell viability (% of control): 57.4 ± 1.7 % of control
[5]; 3.7 nM
  MIA PaCa-2 (pancreas, carcinoma) cell viability (% of control): 101.6 ± 10.8 % of control
[5]; 11.1 nM
  MIA PaCa-2 (pancreas, carcinoma) cell viability (% of control): 110.7 ± 6.4 % of control
[5]; 100 nM
  MIA PaCa-2 (pancreas, carcinoma) cell viability (% of control): 21.6 ± 9.1 % of control
[5]; 300 nM
  MIA PaCa-2 (pancreas, carcinoma) cell viability (% of control): 19.5 ± 7.5 % of control
[6]; 3.7 nM
  FaDu (pharynx, squamous cell carcinoma) cell viability (% of control): 97.9 ± 3.9 % of control
[6]; 11.1 nM
  FaDu (pharynx, squamous cell carcinoma) cell viability (% of control): 97.8 ± 5.2 % of control
[6]; 100 nM
  FaDu (pharynx, squamous cell carcinoma) cell viability (% of control): 27.3 ± 5.2 % of control
[6]; 300 nM
  FaDu (pharynx, squamous cell carcinoma) cell viability (% of control): 25.2 ± 4.6 % of control
[7]; 3.7 nM
  Detroit 562 (pharynx, carcinoma) cell viability (% of control): 99.8 ± 6.4 % of control
[7]; 11.1 nM
  Detroit 562 (pharynx, carcinoma) cell viability (% of control): 50.9 ± 15.2 % of control
[7]; 100 nM
  Detroit 562 (pharynx, carcinoma) cell viability (% of control): 31.6 ± 2.1 % of control
[7]; 300 nM
  Detroit 562 (pharynx, carcinoma) cell viability (% of control): 33.0 ± 3.4 % of control
[8]; 3.7 nM
  SCC-25 (tongue, squamous cell carcinoma) cell viability (% of control): 101.8 ± 4.3 % of control
[8]; 11.1 nM
  SCC-25 (tongue, squamous cell carcinoma) cell viability (% of control): 96.2 ± 4.8 % of control
[8]; 100 nM
  SCC-25 (tongue, squamous cell carcinoma) cell viability (% of control): 42.5 ± 1.8 % of control
[8]; 300 nM
  SCC-25 (tongue, squamous cell carcinoma) cell viability (% of control): 41.5 ± 3.1 % of control
[9]; 3.7 nM
  MDA-MB-453 (breast, carcinoma) cell viability (% of control): 113.6 ± 9.8 % of control
[9]; 11.1 nM
  MDA-MB-453 (breast, carcinoma) cell viability (% of control): 103.7 ± 10.4 % of control
[9]; 100 nM
  MDA-MB-453 (breast, carcinoma) cell viability (% of control): 33.9 ± 1.3 % of control
[9]; 300 nM
  MDA-MB-453 (breast, carcinoma) cell viability (% of control): 32.0 ± 1.1 % of control
[10]; 3.7 nM
  Panc-1 (pancreas, carcinoma) cell viability (% of control): 107.8 ± 16.0 % of control
[10]; 11.1 nM
  Panc-1 (pancreas, carcinoma) cell viability (% of control): 109.1 ± 4.2 % of control
[10]; 100 nM
  Panc-1 (pancreas, carcinoma) cell viability (% of control): 57.1 ± 0.1 % of control
[10]; 300 nM
  Panc-1 (pancreas, carcinoma) cell viability (% of control): 57.2 ± 3.2 % of control
[11]; 3.7 nM
  DU 145 cell viability: 96.8 ± 3.7 % of control
[11]; 11.1 nM
  DU 145 cell viability: 93.4 ± 2.2 % of control
[11]; 100 nM
  DU 145 cell viability: 8.0 ± 1.4 % of control
[11]; 300 nM
  DU 145 cell viability: 7.9 ± 1.6 % of control
[12]; 3.7 nM
  LNCaP cell viability: 101.8 ± 5.6 % of control
[12]; 11.1 nM
  LNCaP cell viability: 97.9 ± 7.3 % of control
[12]; 100 nM
  LNCaP cell viability: 15.4 ± 2.0 % of control
[12]; 300 nM
  LNCaP cell viability: 14.4 ± 0.7 % of control
[13]; 3.7 nM
  Capan-1 (pancreas, adenocarcinoma) cell viability (% of control): 105.9 ± 7.8 % of control
[13]; 11.1 nM
  Capan-1 (pancreas, adenocarcinoma) cell viability (% of control): 106.0 ± 8.0 % of control
[13]; 100 nM
  Capan-1 (pancreas, adenocarcinoma) cell viability (% of control): 40.1 ± 3.7 % of control
[13]; 300 nM
  Capan-1 (pancreas, adenocarcinoma) cell viability (% of control): 37.4 ± 3.5 % of control
[14]; 3.7 nM
  EBC-1 (lung, squamous cell carcinoma) cell viability (% of control): 101.0 ± 19.5 % of control
[14]; 11.1 nM
  EBC-1 (lung, squamous cell carcinoma) cell viability (% of control): 101.7 ± 3.3 % of control
[14]; 100 nM
  EBC-1 (lung, squamous cell carcinoma) cell viability (% of control): 25.1 ± 0.3 % of control
[14]; 300 nM
  EBC-1 (lung, squamous cell carcinoma) cell viability (% of control): 24.1 ± 2.4 % of control
Panc-1 human cell line; PANC-1, 72 h, read-out: IC50 (72 h) [nM]
  IC50: 126 ± 5.96 nM
Panc-1 human cell line; PANC-1, 96 h, read-out: IC50 (96 h) [nM]
  IC50: 75.5 ± 6.76 nM
[15]
  IC50: < 100 nM
[16]
  IC50: < 100 nM

## NCc1cccc(CN2C(=O)C3=C(CCN(Cc4cc(F)cc(F)c4)C3)N3CCN=C23)c1 [I/61, 4-(3-(Aminomethyl)benzyl)-7-(3,5-difluorobenzyl)-2,4,6,7,8,9-hexahydroimidazo[1,2-a]pyrido[3,4-e]pyrimidin-5(1H)-one]
[1]
  IC50: 300 nM
EBC-1 cell line
  IC50: 29 nM
SCC-25 cell line
  IC50: 89 nM
Detroit 562 cell line
  IC50: 84 nM
H2228 cell line
  IC50: 104 nM
Fadu cell line
  IC50: 22 nM
other
  melting point: 129.5 °C

## O=C1C2=C(CCN(Cc3cc(F)cc(F)c3)C2)N2CCN=C2N1Cc1cccc(Cl)c1 [I/125, 4-(3-Chlorobenzyl)-7-(3,5-difluorobenzyl)-2,4,6,7,8,9-hexahydroimidazo[1,2-a]pyrido[3,4-e]pyrimidin-5(1H)-one]
other
  melting point: 204.8 °C
